Results: patent US20140378515A1, “IMMUNOSUPPRESSIVE COMPOUNDS” (priority 2013, published 2014)
Converted amounts (≈) assume the structure as drawn. “And” between values parts separate entries of the source, which are not always exact repeats. Equal entries are not always repeated.

Legend:
[1] = tested on: NO produced by mouse macrophages J774.2 cell line; experiment: Nitrite accumulation in LPS-stimulated J774.2 macrophages (Griess method); type: cell-based; conditions: LPS-stimulated J774.2, 24 hours
Description: The mouse macrophage cell line J774.2 obtained from ECACC, Salisbury, Wiltshire (UK) was cultured in T75 flasks in complete DMEM containing 10% fetal bovine serum and supplemented with 1% streptomycin/penicillin. Flasks were kept at 37° C. in the atmosphere of humidified air containing 5% CO2. Cell were then seeded in 24 well (10^6 cells/mL) and nitric oxide synthase (NOS-2) in the macrophages was induced by addition of 20 μg/mL E. coli lipopolysaccharide (DIFCO Laboratories, Michigan, USA). The test compounds were added at a concentration of 25 μg/mL soon after LPS stimulation and incubated at 37° C. in 5% CO2. Cell culture supernatant was collected after 24 hours. Nitrite accumulation in J774.2 cell culture supernatant was measured using the Griess method, where 50 μL of 1% sulphanilamide in 2.5% phosphoric acid, followed by 50 μL of 0.1% naphtyl-ethylene diamine dihydrochloride in 2.5% phosphoric acid were added to 50 μL culture medium. After 10 minutes of incubation at room temperature the absorbance at 550 nm was read. Micromolar concentrations of nitrite were calculated from standard curve constructed with sodium nitrite a reference compound. The results were expressed as means±SD of duplicate readings.

[2] = tested on: ROS produced by human blood phagocytes; experiment: Oxidative burst, luminol-enhanced chemiluminescence in whole blood; type: cell-based; conditions: serum opsonized zymosan
Description: Formation of the reactive oxygen species (ROS) in whole blood, during the oxidative burst was measured by the luminol-enhanced chemiluminescence assay. In brief, three concentrations of each compound (1.0, 10 and 100 μg/mL) were prepared in 25 μL of Hank's Balanced salt solution containing calcium chloride and magnesium sulfate (HBSS^++) in a half area 96-well white flat-bottomed plate (Sigma Aldrich, Steinheim, Germany) in a final volume of 100 μL. Then 25 μL of whole blood diluted 1:50 in suspension of HBSS^++ was added.
Positive and negative controls and blank wells were included. Cells and compounds were incubated for 30 minutes at 37° C., then 25 μL luminol [3-aminophthalhydrazide] (Research Organics Cleveland, Ohio, USA), were added into each well followed by 25 μL of serum opsonized zymosan (Saccharomyces cerevisiae origin) purchased from Fluka, Buchs (Switzerland) was added except for negative and blank wells. The ROS chemiluminescence kinetic was monitored with a luminometer from Labsystems (Helsinki, Finland), for 50 minutes in the repeated scan mode. Peak and total integral chemiluminescence readings were expressed in the relative light unit.

[3] = tested on: NO produced by mouse macrophages J774.2 cell line; experiment: Nitrite accumulation in LPS-stimulated J774.2 macrophages (Griess method); type: cell-based
IL-2 production = IL-2 production by PHA/PMA stimulated PBMCs (ELISA); type: cell-based, human; conditions: for IC50: experimental IL-2 IC50 listed in Table 3
Description: The PBMCs were cultured in a 96-well flat-bottomed plate (1.0×10^5 cell/well) in the presence or absence of three concentrations of test compounds (1.0, 5.0 and 20 μg/mL), and phytohemagglutinin (PHA) phorbol myristate acetate (PMA) in a final concentration of 5 ng/mL and 20 ng/mL, respectively. After an incubation period of 18 h at 37° C. in a humidified atmosphere of 5% CO2 in air, the supernatant was collected for IL-2 determination. Interleukin-2 levels were measured by using enzyme-linked immunosorbent assay (ELISA) development kit (R&D systems, Minneapolis, Minn., USA). The assay was performed according to the manufacturer's instructions. Briefly, a 96-well flat-bottomed ELISA plate was coated with 4.0 μg/mL mouse anti-human IL-2, in PBS, pH 7.4. Then, re-combinant human IL-2 standards and culture supernatant samples were added and incubated for 2 h followed by washing steps and then the addition of biotinylated goat anti-human IL-2. After an incubation period of 2 h at room temperature, the plates were again washed and streptavidin conjugated horse raddish peroxidase was added and incubated for additional 20 min at room temperature. After the final washes, an enzyme substrate solution of H2O2 and tetra methyl benzidine (1:1 v/v) was added and the color was allowed to develop at room temperature in the dark. The plates were then read at 450 nm in a plate reader (DIAReader GMBH, Wr. Neudorf, Austria). The results were analyzed using Microsoft Excel.

T-cell proliferation = T-cell proliferation assay (PHA-stimulated PBMNCs, 3H-thymidine incorporation); type: cell-based, human; parameters: unit not given here; conditions: PHA 5 μg/mL stimulated PBMNCs
Description: The diluted blood was then layered onto lymphocyte separation medium (MP Biomedicals, Inc., Ohio, USA) and centrifuged at 400 g for 20 min at 25° C. […] Plates were then incubated at 37° C. in a humidified atmosphere of 5% CO2 in air for 72 hours. To each well, 0.5 μCi [methyl ^3H]-thymidine (Amersham Place Little Chalfont, Buckinghamshire, UK) was added for an additional 18 hours. Cells were harvested using a cell harvester (Inotech, Dottikon, Switzerland), and incorporation and level of radioactivity was measured by a liquid scintillation counter (Beckman coulter, LS 6500, Fullerton, Calif., USA).

[4] = tested on: 3T3 NIH mouse embryo fibroblast cell line; experiment: MTT cytotoxicity assay; conditions: for Cytotoxicity IC50: 3T3 NIH cells, 48 h; for interference with the growth of 3T3 cells: up to 20 μg/mL
Description: The 3T3-NIH cells were suspended in Dulbecco's Modified Eagle's Medium (DMEM) formulated with 10% FBS. Using flat bottomed plates, cells were plated at a concentration of 6×10^4 cells/mL and incubated for 24 h at 37° C. and 5% CO2 environment. […] Following exposure to each compound, cell viability was assessed by using 0.5 mg/mL of MTT {3-(4,5-dimethylthiazol-2-yl)-2,5-diphenyltetrazolium bromide for 4 h followed by the removal of supernatant and addition of DMSO to solubilize the formazan complex. The plates were read at 540 nm after one minute shaking and readings were processed using MS Excel software. The results were expressed as means±SD of triplicate readings.

IL-4 production = IL-4 production by PHA stimulated PBMNCs (ELISA); type: cell-based, human; conditions: 18 h
Description: The PBMNCs were cultured in a 96-well flat-bottomed plate (2.0×10^6 cell/mL) in the presence or absence of three concentrations of test compounds (1.0, 5.0, and 25 μg/mL), and phytohemagglutinin (PHA) in a final concentration of 7.5 μg/mL. After an incubation period of 18 h at 37° C. in 5% CO2, supernatant was collected for IL-4 determination. Interleukin-4 levels were measured by using enzyme-linked immunosorbent assay (ELISA) kit (Diaclone, France). The assay was performed according to the manufacturer's instructions. Briefly, in a 96-well ELISA plate which was coated with monoclonal mouse anti-human IL-4, 100 μl recombinant human IL-4 standards and culture supernatants samples were added. The plates were incubated for 2 hours at room temperature and washed three times with wash buffer, followed by the addition of biotinylated goat anti-human IL-4 and further incubated for 1 hour at room temperature. The plates were again washed and streptavidin conjugated horse raddish peroxidase was added and incubated for an additional 20 minutes at room temperature. After three final washes, the enzyme substrate solution was added and incubated for 12 to 15 minutes to allow color development at room temperature in the dark. Then stop solution was added and the plates were read at 450 nm in a plate reader (DIAReader GMBH, Wr. Neudorf, Austria). The results were analyzed using Microsoft Excel.

Compound	% of NO inhibited by 25 μg/mL of compound [1]	IC50 (μg/mL) for phagocytes ROS [2]	Cytotoxicity IC50 [4]	interference with the growth of 3T3 cells [4]	other results
CCOc1cccc(-c2nc3ccccc3s2)c1O [Compound 1]	26.5 ± 0.0%	>100 µg/mL			
c1ccc2cc(-c3nc4ccccc4s3)ccc2c1 [Compound 3]	20.5 ± 5.9%	>100 µg/mL			
Oc1ccc(-c2nc3ccccc3s2)cc1 [Compound 4]	56.1±0.6%	>100 µg/mL	>25 µg/mL	did not interfere with the growth of 3T3 cells	IC50 NO production [3]: 7.9 ± 0.9 µg/mL (≈ 34.8 µM); IC50 (IL-2 production): 2.9 µg/mL (≈ 12.8 µM); IC50 T-cell proliferation (T-cell proliferation): 2.3±0.1
Oc1cccc(-c2nc3ccccc3s2)c1 [Compound 5]	44.5 ± 0.3%	>100 µg/mL	>20 µg/mL	did not interfere with the growth of 3T3 cells	IC50 IL-4 production (IL-4 production): 8.9 ± 0.6 µg/mL (≈ 39.2 µM); IC50 IL-2 production (IL-2 production; PHA/PMA stimulated PBMCs, 18 h incubation): 6.0 µg/mL (≈ 26.4 µM); IC50 T-cell proliferation (T-cell proliferation): 2.7±0.2
Oc1ccc(Cl)cc1-c1nc2ccccc2s1 [Compound 6]	35.5 ± 7.4%	34.3 ± 4.4 µg/mL			
Cc1ccccc1-c1nc2ccccc2s1 [Compound 7]	5.4 ± 2.8%	>100 µg/mL			
Oc1ccc(O)c(-c2nc3ccccc3s2)c1 [Compound 8]	91.1±0.7%	<1 µg/mL	>20 µg/mL	did not interfere with the growth of 3T3 cells	IC50 IL-4 production (IL-4 production): 9.8 ± 0.6 µg/mL (≈ 40.3 µM); IC50 NO production [3]: < 5 µg/mL; IC50 (IL-2 production): <1 µg/mL; IC50 T-cell proliferation (T-cell proliferation): 1.1±0.1
Oc1ccc(-c2nc3ccccc3s2)cc1O [Compound 9]	58.5±3.3%	3.7 ± 0.2 µg/mL	11.1 µg/mL and 11.4 ± 1.8 µg/mL	did not interfere with the growth of 3T3 cells	IC50 NO production [3]: 12.6 ± 2.1 µg/mL (≈ 51.8 µM); IC50 T-cell proliferation (T-cell proliferation): 1.2±0.0
Oc1cccc(-c2nc3ccccc3s2)c1O [Compound 10]	14.3 ± 1.0%	1.1 ± 0.1 µg/mL		did not interfere with the growth of 3T3 cells	IC50 T-cell proliferation (T-cell proliferation): 0.99±0.1
Clc1ccc(-c2nc3ccccc3s2)c(Cl)c1 [Compound 11]	−7.4 ± 3.0%	>100 µg/mL			
COc1ccc(-c2nc3ccccc3s2)cc1OC [Compound 12]	−1.5 ± 0.6%	>100 µg/mL			IC50 IL-4 production (IL-4 production): < 1.0 µg/mL; IC50 T-cell proliferation (T-cell proliferation): 1.0±0.1
Oc1ccc(-c2nc3ccccc3s2)c(O)c1 [Compound 13]	32.7 ± 8.3%	11.1 ± 0.9 µg/mL	11.5 ± 0.0 µg/mL	did not interfere with the growth of 3T3 cells	
CN(C)c1ccc(-c2nc3ccccc3s2)cc1 [Compound 14]	16.8 ± 0.8%	11.8 ± 1.2 µg/mL	>25 µg/mL	did not interfere with the growth of 3T3 cells	
Cc1ccc(-c2nc3ccccc3s2)cc1 [Compound 15]	10.8 ± 2.4%	>100 µg/mL			
Oc1ccccc1-c1nc2ccccc2s1 [Compound 16]	20.2 ± 1.5%	>100 µg/mL			
Clc1cccc(-c2nc3ccccc3s2)c1 [Compound 17]	14.1 ± 3.0%	81.0 ± 4.1 µg/mL			
Oc1cc(O)c(-c2nc3ccccc3s2)cc1O [Compound 18]	78.1±1.6%	>100 µg/mL	10.4 µg/mL		IC50 IL-4 production (IL-4 production): 8.0 ± 0.0 µg/mL (≈ 30.9 µM); IC50 (IL-2 production): 1.1 µg/mL (≈ 4.24 µM); IC50 T-cell proliferation (T-cell proliferation): 1.95±0.4
c1cncc(-c2nc3ccccc3s2)c1 [Compound 19]	11.7 ± 1.7%	>100 µg/mL			
c1ccc2sc(-c3ccncc3)nc2c1 [Compound 20]	41.6 ± 4.7%	15.5 ± 1.0 µg/mL	>25 µg/mL		
Brc1ccc(-c2nc3ccccc3s2)cc1 [Compound 21]	11.5 ± 2.7%	>100 µg/mL			
CCOc1ccc(-c2nc3ccccc3s2)cc1 [Compound 22]	23.5 ± 3.7%	>100 µg/mL			
Fc1ccccc1-c1nc2ccccc2s1 [Compound 23]	28.4 ± 2.5%	>100 µg/mL			
c1csc(-c2nc3ccccc3s2)c1 [Compound 24]	30.3 ± 0.3%	14.4 ± 2.5 µg/mL	>25 µg/mL	did not interfere with the growth of 3T3 cells	
Clc1ccc(-c2nc3ccccc3s2)cc1 [Compound 25]	20.6 ± 5.3%	>100 µg/mL			
Clc1ccc(-c2nc3ccccc3s2)cc1Cl [Compound 26]	35.7 ± 1.5%	>100 µg/mL			
CC(C)Cc1ccc(C(C)C(=O)O)cc1 (centres unmarked) [Ibuprofen, reference compound]					IC50 ([2]; read-out: IC50 (μg/mL) for phagocytes ROS): 11.8 ± 1.2 µg/mL
